Where two headings read alike, the source gives them in different places.
Experiments:
[1] = molecular target: T1, CYP3A4 (Homo sapiens, UniProt P08684); test: 7-Benzyloxyquinoline O-debenzylation in liver microsomes of rifampicin- or vehicle-treated 8HUM mice; assay type: in vitro ADME; details: liver microsomes of rifampicin-treated 8HUM mice
T1 construct: pooled rifampicin-treated male and female 8HUM mice (8HUM) or pooled human liver microsomes (HLM); host or cells: liver microsomes: pooled human liver; liver of 8HUM mice carrying human CYP3A4/CYP3A7 under the human promoter

[2] = molecular target: T2, CYP1A2 (Homo sapiens, UniProt P05177)
T2 sequence (P05177 1-516): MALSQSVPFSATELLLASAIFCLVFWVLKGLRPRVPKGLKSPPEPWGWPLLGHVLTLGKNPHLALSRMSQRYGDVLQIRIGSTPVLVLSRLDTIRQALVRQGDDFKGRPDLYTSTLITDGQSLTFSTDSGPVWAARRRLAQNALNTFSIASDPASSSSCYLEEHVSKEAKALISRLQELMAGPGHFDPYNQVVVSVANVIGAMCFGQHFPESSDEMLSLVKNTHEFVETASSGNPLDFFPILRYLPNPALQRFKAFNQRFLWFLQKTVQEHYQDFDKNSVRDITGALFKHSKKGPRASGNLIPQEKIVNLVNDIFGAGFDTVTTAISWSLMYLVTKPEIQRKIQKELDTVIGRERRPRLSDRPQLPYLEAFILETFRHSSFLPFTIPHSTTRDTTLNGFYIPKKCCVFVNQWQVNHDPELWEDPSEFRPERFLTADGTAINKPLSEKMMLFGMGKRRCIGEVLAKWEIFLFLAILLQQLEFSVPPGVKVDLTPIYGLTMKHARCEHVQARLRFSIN
Experimental: (§2) A mixture of either 7-methoxyresorufin or 7-ethoxyresorufin (1 μM) and 8HUM liver microsomes or HLM (∼0.38 mg protein/ml) in 100 mM potassium phosphate buffer (pH 7.4) supplemented with MgCl2 (3.3 mM) was incubated at 37°C for 5 minutes before the addition of NADPH (final concentration 1.2 mM). […] Slopes of the linear part of the kinetic curves were calculated using Ascent Software Version 2.4.1 (Labsystems). For each reaction two controls, with and without reaction product resorufin (40 pmol) were run. Fluorescence was measured from both control wells and the difference in fluorescence intensity between wells with and without resorufin was used for the conversion of the relative fluorescence units to the picomoles of the reaction product.

[3] = system: CYP3A4; test: CYP3A4 induction by PXR activators in humanized CAR/PXR/CYP3A4 mice; details: CAR/PXR/CYP3A4 model (Supplemental Fig. 4)
Source text: We therefore sought to identify a specific, clinically relevant PXR agonist that was nontoxic. […] Subsequent studies were therefore undertaken using SJW to induce CYP3A4 expression in 8HUM mice.

[4] = molecular target: T2, CYP1A2; test: Enzyme inhibition assay, caffeine to paraxanthine (HLM, 8HUM microsomes); details: caffeine 220 μM in cocktail, furafylline 3, enoxacin 200, fluconazole 300, sulfaphenazole 3, quinidine 3, paroxetine 10, ketoconazole 1 μM
Experimental: (§1) After a 5-minute preincubation at 37°C, reactions were initiated by addition of NADPH (1.3 mM). […] The samples were then centrifuged at 3000g for 55 minutes at 4°C, and an aliquot of the supernatant fraction was analyzed by LC-MS/MS. All experiments were performed at least in triplicate.

[5] = system: CYP2D6; test: Enzyme inhibition assay, debrisoquine 4-hydroxylation (HLM, 8HUM microsomes); details: for Debrisoquine (4-OH Debrisoquine) activity, percent of activity measured in the absence of inhibitor: HLM […], debrisoquine 67 μM in cocktail, furafylline 3, enoxacin 200, fluconazole 300, sulfaphenazole 3, quinidine 3, paroxetine 10, ketoconazole 1 μM
Experimental: as §1

[6] = molecular target: CYP2D6 (Homo sapiens, UniProt P10635, R296C/S486T); test: as above; details: 8HUM microsomes […]; debrisoquine 67 μM in cocktail; furafylline 3, enoxacin 200, fluconazole 300, sulfaphenazole 3, quinidine 3, paroxetine 10, ketoconazole 1 μM
Experimental: as §1

[7] = molecular target: T3, CYP2C9 (Homo sapiens, UniProt P11712); test: Enzyme inhibition assay, tolbutamide hydroxylation (HLM, 8HUM microsomes); details: tolbutamide 2 μM in cocktail, furafylline 3, enoxacin 200, fluconazole 300, sulfaphenazole 3, quinidine 3, paroxetine 10, ketoconazole 1 μM
Experimental: as §1

[8] = Pharmacokinetics of cassette-dosed probe drugs in 8HUM mice with or without rifampicin pretreatment; details: female, mouse, in vivo, po, AUCall, female 8HUM mice, oral cassette: caffeine, debrisoquine, tolbutamide 5 mg/kg, midazolam 3 mg/kg
Experimental: Female 8HUM mice received either two daily intraperitoneal doses of RIF (n = 4; 20–26 weeks) or vehicle (corn oil; n = 4; 25–29 weeks). […] Blood samples (10 μl) were collected at the indicated time points after dosing, mixed immediately with 10 μl of heparin (15 IU/ml), snap frozen in liquid nitrogen, and stored at approximately −70°C prior to analysis (see Supplemental Data for details).
Pharmacokinetic parameters were calculated by Phoenix WinNonlin version 8.0.0.3176 (Certara, Princeton, NJ).
Fig. 2. […] Data shown are mean ± S.D.

[9] = molecular target: T1, CYP3A4; test: Kinetic parameters of 1-hydroxyl midazolam formation in liver microsomes (HLM, 8HUM); assay type: in vitro ADME; details: pH 7.4
Experimental: All samples were handled in amber tubes under conditions of subdued light for the duration of the procedure. […] The samples were then centrifuged at 3000g for 55 minutes at 4°C and an aliquot of the supernatant fraction was analyzed by LC-MS/MS.
Calibration curves were constructed with authentic metabolite standards and linear regression analysis used to calculate the amount of metabolite formed in each test sample. […] The 7-ethoxyresorufin O-deethylation assay was carried out as detailed below.

[10] = molecular target: T3, CYP2C9; details: sulfaphenazole 50 μM
[11] = Osimertinib pharmacokinetics in 8HUM mice: effect of rifampicin and β-naphthoflavone; details: female, mouse, in vivo, po, 25 mg/kg; for AUC / Cmax: female 8HUM mice, osimertinib 25 mg/kg oral
Source text: Humans and rodents metabolize drugs down different pathways and also generate different metabolites both in their site of oxidation as well as in different metabolite ratios when multiple sites of oxidation are involved. […] Mice were pretreated with either RIF or a combination of RIF and β-naphthoflavone (BNF), an aryl hydrocarbon receptor agonist that induces P450s in the CYP1A gene family.
Fig. 4. […] Osimertinib structure and sites of metabolism in humans (C) are also shown. […] Panel B prints no name for the measured substance; it is presumably Osimertinib, the name printed in panel A.

[12] = design: method as in Cross et al., 2014; details: WT mice; ref Cross et al., 2014; cited from earlier work
[13] = molecular target: T2, CYP1A2; test: in vitro; details: 8HUM, mouse, microsomes, pH 7.4, Inhibition of 7-methoxyresorufin metabolism
Experimental: as §2

[14] = RIF + BNF 80 mg/kg i.p. daily 3 days
[15] = RIF in diet (equivalent 10 mg/kg) 3 days

T3 sequence (P11712 whole entry): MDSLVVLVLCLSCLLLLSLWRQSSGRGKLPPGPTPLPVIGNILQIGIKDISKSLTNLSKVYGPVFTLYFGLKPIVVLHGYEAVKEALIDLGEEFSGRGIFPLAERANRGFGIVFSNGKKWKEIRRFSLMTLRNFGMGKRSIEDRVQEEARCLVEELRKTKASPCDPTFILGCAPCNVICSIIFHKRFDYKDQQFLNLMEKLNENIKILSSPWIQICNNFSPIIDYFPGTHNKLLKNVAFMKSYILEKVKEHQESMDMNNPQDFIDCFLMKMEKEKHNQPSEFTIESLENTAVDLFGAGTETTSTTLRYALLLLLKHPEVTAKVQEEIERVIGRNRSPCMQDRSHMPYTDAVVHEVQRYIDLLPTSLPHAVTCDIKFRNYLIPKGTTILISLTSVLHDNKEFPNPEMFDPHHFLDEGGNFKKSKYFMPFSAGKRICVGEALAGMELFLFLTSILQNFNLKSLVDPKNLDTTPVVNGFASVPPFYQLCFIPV
T1 sequence (P08684 whole entry): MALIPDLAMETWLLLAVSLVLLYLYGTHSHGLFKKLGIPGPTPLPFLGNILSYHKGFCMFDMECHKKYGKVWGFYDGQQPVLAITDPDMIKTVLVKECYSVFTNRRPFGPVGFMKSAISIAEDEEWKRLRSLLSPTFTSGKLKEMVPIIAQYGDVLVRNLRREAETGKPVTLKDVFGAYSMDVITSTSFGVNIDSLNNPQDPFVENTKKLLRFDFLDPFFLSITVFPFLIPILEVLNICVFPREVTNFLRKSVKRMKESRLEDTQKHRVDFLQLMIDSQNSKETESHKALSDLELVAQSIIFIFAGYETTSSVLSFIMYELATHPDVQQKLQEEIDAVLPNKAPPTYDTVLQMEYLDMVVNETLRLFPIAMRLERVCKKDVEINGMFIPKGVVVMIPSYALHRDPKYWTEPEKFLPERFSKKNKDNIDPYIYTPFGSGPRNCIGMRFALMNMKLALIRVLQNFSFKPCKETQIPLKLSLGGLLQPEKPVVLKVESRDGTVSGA

For c1ccc(COc2ccc3cccnc3c2)cc1 [7-BQ, 7-benzyloxyquinoline], the “Rate of 7-BQ hydroxylation (metabolism)” value [1] was 4218 ± 550 pmol/min per milligram.

In the case of COc1ccc2nc3ccc(=O)cc-3oc2c1 [7-methoxyresorufin], the “Rate of 7-methoxyresorufin metabolism” value [2] is reported as 42.84 ± 9.93 pmol/min per milligram.

With O=C1Nc2ccc(Cl)cc2[C@@](C#CC2CC2)(C(F)(F)F)O1 [EFV, efavirenz] the “Induction of CYP3A4” value [3] was “effective inducers of CYP3A4”.

With OC(Cn1cncn1)(Cn1cncn1)c1ccc(F)cc1F [Fluconazole, fluconazole] the “Caffeine (Paraxanthine) activity, percent of activity measured in the absence of inhibitor” value ([4]; 8HUM microsomes […]) was 100 ± 31%, the “Caffeine (Paraxanthine) activity, percent of activity measured in the absence of inhibitor” value ([4]; HLM […]) was 114 ± 37% and the “Debrisoquine (4-OH Debrisoquine) activity, percent of activity measured in the absence of inhibitor” value [5] was 96 ± 9%. For the same compound, the “Debrisoquine (4-OH Debrisoquine) activity, percent of activity measured in the absence of inhibitor” value [6] was 88 ± 19%, the “Tolbutamide (OH-Tolbutamide) activity, percent of activity measured in the absence of inhibitor” value ([7]; 8HUM microsomes […]) was 41 ± 33% and the “Tolbutamide (OH-Tolbutamide) activity, percent of activity measured in the absence of inhibitor” value ([7]; HLM […]) was 35 ± 21%.

With Cc1nc2c([nH]1)c(=O)n(C)c(=O)n2Cc1ccco1 [Furafylline, furafylline] the “Debrisoquine (4-OH Debrisoquine) activity, percent of activity measured in the absence of inhibitor” value [5] was 65 ± 9%, the “Debrisoquine (4-OH Debrisoquine) activity, percent of activity measured in the absence of inhibitor” value [6] was 91 ± 13% and the “Tolbutamide (OH-Tolbutamide) activity, percent of activity measured in the absence of inhibitor” value ([7]; 8HUM microsomes […]) was 63 ± 19%. The “Tolbutamide (OH-Tolbutamide) activity, percent of activity measured in the absence of inhibitor” value ([7]; HLM […]) was 103 ± 25%.

Compound Cc1ncc2n1-c1ccc(Cl)cc1C(c1ccccc1F)=NC2 [Midazolam, midazolam] has an AUC ([8]; rifampicin 10 mg/kg i.p. daily for 2 days pretreatment) of 68.8 ± 21.1 ng·h/mL, an AUC ([8]; vehicle (corn oil) i.p. pretreatment) of 860 ± 138 ng·h/mL and a Km at 2 min ([9]; both sexes, 8HUM, mouse, liver microsomes of pooled rifampicin-treated 8HUM mice) of 1.2 ± 0.3 µM. It also gave a Km at 2 min ([9]; human, pooled human liver microsomes) of 0.73 ± 0.2 µM.

For CCC1(c2ccccc2)C(=O)NC(=O)NC1=O [PB, phenobarbital], the “Induction of CYP3A4” value [3] was “effective inducers of CYP3A4”.

For Fc1ccc([C@@H]2CCNC[C@H]2COc2ccc3c(c2)OCO3)cc1 [Paroxetine, paroxetine], the “Debrisoquine (4-OH Debrisoquine) activity, percent of activity measured in the absence of inhibitor” value [5] was 52 ± 11% and the “Species difference in extent of inhibition of debrisoquine 4-hydroxylation (HLM vs 8HUM microsomes)” value ([5]; HLM vs microsomes from 8HUM mice) was 4 fold.

With C=C[C@H]1C[N@@]2CC[C@H]1C[C@@H]2[C@@H](O)c1ccnc2ccc(OC)cc12 [Quinidine, quinidine] the “Debrisoquine (4-OH Debrisoquine) activity, percent of activity measured in the absence of inhibitor” value [6] was 43 ± 5%.

With Nc1ccc(S(=O)(=O)Nc2ccnn2-c2ccccc2)cc1 [Sulfaphenazole, sulfaphenazole] the “Tolbutamide (OH-Tolbutamide) activity, percent of activity measured in the absence of inhibitor” value ([7]; 8HUM microsomes […]) was 28 ± 15%, the “Tolbutamide (OH-Tolbutamide) activity, percent of activity measured in the absence of inhibitor” value ([7]; HLM […]) was 14 ± 4% and the “Remaining tolbutamide 4-hydroxylation activity in the presence of inhibitor” value ([10]; liver microsomes of control 8HUM mice) was 2.01 ± 0.33 pmol/min per milligram. The “Remaining tolbutamide 4-hydroxylation activity in the presence of inhibitor” value ([10]; liver microsomes of rifampicin-treated 8HUM mice) was 11.43 ± 9.38 pmol/min per milligram.

Work on C=CC(=O)Nc1cc(Nc2nccc(-c3cn(C)c4ccccc34)n2)c(OC)cc1N(C)CCN(C)C [osimertinib] yielded a half-life ([11]; 8HUM mice, osimertinib 25 mg/kg by oral gavage) of 20 h, an AUC ([11]; Control (normal RM1 diet)) of 3750 ± 614 ng·h/mL and a Cmax ([11]; Control (normal RM1 diet)) of 199 ± 29 ng/mL. It also gave an AUC [11, 14] of 661 ± 132 ng·h/mL, a Cmax [11, 14] of 71 ± 7 ng/mL and an AUC [11, 15] of 2140 ± 631 ng·h/mL. For the same compound, the Cmax [11, 15] was 139 ± 26 ng/mL and the half-life [12] was 3.5 h.

Work on O=c1cc(-c2ccccc2)oc2c1ccc1ccccc12 [α-naphthoflavone] yielded an inhibition at 3.33 μM [13] of 75%.

— PMC6505380, “An Extensively Humanized Mouse Model to Predict Pathways of Drug Disposition and Drug/Drug Interactions, and to Facilitate Design of Clinical Trials” (Drug Metabolism and Disposition, 2019)
